{
  "source": "paper PMC9823088",
  "about": "“The oral selective estrogen receptor degrader GDC-0810 (ARN-810) in postmenopausal women with hormone receptor-positive HER2-negative (HR + /HER2 −) advanced/metastatic breast cancer” (Breast Cancer Research and Treatment, 2022)",
  "origin": "cited, not measured here",
  "test_system": "tamoxifen-resistant ER + breast cancer xenograft",
  "details": "tamoxifen-resistant ER + breast cancer xenograft models; cited from earlier work",
  "data": [
    {"smiles": "CC/C(=C(/c1ccc(/C=C/C(=O)O)cc1)c1ccc2[nH]ncc2c1)c1ccc(F)cc1Cl", "note": "[GDC-0810]", "values": [
      {"measurement": "tumor regression", "value": "induced tumor regression"}
    ]}
  ]
}
